From US8580297B2, “Components for producing amphoteric liposomes” (Marina Biotech, Inc., priority 2002, dated 2013)

Experiment: Zeta potential profile at varying pH of amphoteric liposomes (zero point = isoelectric point)
Assay type: physicochemical
Details: liposomes of 2 mg lipid and 10 mg DMPC; buffer 10 mM Kac, 10 mM HEPES, 150 mM NaCl; extruded 200 nm; value is a pH
Description: FIG. 1 is a graph showing a profile of the zeta potential in mV at varying pH values for the amphoteric liposomes prepared according to Example 4.
2 mg of the corresponding lipid and 10 mg of DMPC are dissolved in 4 ml of chloroform/methanol (1:1 v/v) and dried completely in a rotary evaporator. The lipid film is hydrated with 4.3 ml of buffer (10 mM Kac, 10 mM HEPES, 150 mM NaCl, pH 7.5) at a lipid concentration of 5 mM using ultrasonic treatment for 5 minutes. Finally, the suspension is frozen and, following thawing, subjected to multiple extrusions (Avestine LiposoFast, polycarbonate filter, pore width 200 nm). The profile of the zeta potential in mV at varying pH values is illustrated in FIG. 1. The zero point indicates the pH value at which the liposome is discharged. This pH corresponds to the isoelectric point of the lipid and is 4.5 for #8, 5.2 for #34, 5.7 for #25.

Row | isoelectric point of the lipid (pH value at which the liposome is discharged, zero point of zeta potential) | SMILES
1 | 4.5 | CCCCCCCC/C=C\CCCCCCCC(=O)OCC(CN(CCC(=O)O)CCC(=O)O)OC(=O)CCCCCCC/C=C\CCCCCCCC (centres unmarked) [#8, N,N-bis(propanoic acid-3-yl)-N-(2,3-dioleoyloxypropyl)amine]
2 | 5.7 | CCCC(=O)OC(COC(=O)CC)OP(=O)(O)OCCNCCC(=O)NC(Cc1c[nH]cn1)C(=O)O (centres unmarked) [#25, phosphatidyl glycerylcarnosine]
